In patent US20070021419A1, “2-Aminophenyl-4-phenylpyrimidines as kinase inhibitors” (Cyclacel Limited, priority 2003, published 2007):

Assays:
Aurora-A = target: T1, Aurora-A (Homo sapiens, UniProt O14965); assay: Kinase assay, radioactive phosphate incorporation, Aurora-A; format: biochemical; details: 100 μM ATP, 30° C.; read-out: Kinase inhibition IC50 Aurora-A
T1 sequence (O14965 1-403): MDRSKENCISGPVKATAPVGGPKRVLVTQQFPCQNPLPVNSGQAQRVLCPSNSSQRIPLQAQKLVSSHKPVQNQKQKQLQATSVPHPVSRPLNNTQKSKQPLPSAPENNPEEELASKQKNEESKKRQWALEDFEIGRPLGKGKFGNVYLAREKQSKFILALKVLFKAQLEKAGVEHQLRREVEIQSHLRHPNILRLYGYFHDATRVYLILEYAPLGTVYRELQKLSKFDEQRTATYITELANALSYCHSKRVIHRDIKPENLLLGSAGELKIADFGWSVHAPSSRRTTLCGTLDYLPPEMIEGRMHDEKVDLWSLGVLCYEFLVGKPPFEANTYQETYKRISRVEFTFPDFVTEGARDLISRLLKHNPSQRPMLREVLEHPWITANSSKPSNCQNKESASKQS
Protocol: (§1) The compounds from the examples above were investigated for their ability to inhibit the enzymatic activity of various protein kinases. This was achieved by measurement of incorporation of radioactive phosphate from ATP into appropriate polypeptide substrates. Recombinant protein kinases and kinase complexes were produced or obtained commercially. Assays were performed using 96-well plates and appropriate assay buffers (typically 25 mM β-glycerophosphate, 20 mM MOPS, 5 MM EGTA, 1 mM DTT, 1 mM Na3VO3, pH 7.4), into which were added 2-4 μg of active enzyme with appropriate substrates. The reactions were initiated by addition of Mg/ATP mix (15 mM MgCl2+100 μM ATP with 30-50 kBq per well of [γ-^32P]-ATP) and mixtures incubated as required at 30° C. Reactions were stopped on ice, followed by filtration through p81 filterplates or GF/C filterplates (Whatman Polyfiltronics, Kent, UK). After washing 3 times with 75 mM aq orthophosphoric acid, plates were dried, scintillant added and incorporated radioactivity measured in a scintillation counter (TopCount, Packard Instruments, Pangbourne, Berks, UK). Compounds for kinase assay were made up as 10 mM stocks in DMSO and diluted into 10% DMSO in assay buffer.

CDK9/cyclin T1 = CDK9/cyclin T1 (Homo sapiens, UniProt P50750); assay: Kinase assay, radioactive phosphate incorporation, CDK9/cyclin T1; format: biochemical; details: 100 μM ATP, 30° C.; read-out: Kinase inhibition IC50 CDK9/cyclin T1
Method in brief: (§2)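 Recombinant kinase complexes (2-4 μg active enzyme) were incubated at 30° C with polypeptide substrates in buffer of 25 mM β-glycerophosphate, 20 mM MOPS, 5 mM EGTA, 1 mM DTT, 1 mM […], pH 7.4. Reactions began with 15 mM MgCl2 plus 100 μM ATP spiked with [γ-32P]-ATP. Substrate-incorporated radioactivity was counted after filter capture.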

[1] = system: transformed human cell lines (A549, HT29, Saos-2); assay: 72-h MTT cytotoxicity assay, average of cell lines; format: cell-based; details: read-out: 72-h MTT IC50 Average, average of A549, HT29, Saos-2
Method in brief: (§3)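 First, cells seeded per doubling time rest overnight at 37° C. Next, triplicate wells receive a 1/3 compound dilution series for 72 h. Finally, MTT from a 5 mg/mL stock is applied for 4 h in darkness before DMSO dissolves the dye.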

CDK2/cyclin E = CDK2/cyclin E (Homo sapiens, UniProt P24941); assay: Kinase assay, radioactive phosphate incorporation, CDK2/cyclin E; format: biochemical; details: 100 μM ATP, 30° C.; read-out: Kinase inhibition IC50 CDK2/cyclin E
Method in brief: as §2

Saos-2 = assay: 72-h MTT cytotoxicity assay, Saos-2; format: cell-based; details: Homo sapiens, read-out: 72-h MTT IC50 Saos-2, Saos-2 cell line
Method in brief: as §3

HT29 = assay: 72-h MTT cytotoxicity assay, HT29; format: cell-based; details: Homo sapiens, HT-29, read-out: 72-h MTT IC50 HT29, HT29 cell line
Method in brief: as §3

CDK7/cyclin H = CDK7/cyclin H (Homo sapiens, UniProt P50613); assay: Kinase assay, radioactive phosphate incorporation, CDK7/cyclin H; format: biochemical; details: 100 μM ATP, 30° C.; read-out: Kinase inhibition IC50 CDK7/cyclin H
Method in brief: as §2

CDK4/cyclin D1 = CDK4/cyclin D1 (Homo sapiens, UniProt P11802); assay: Kinase assay, radioactive phosphate incorporation, CDK4/cyclin D1; format: biochemical; details: 100 μM ATP, 30° C.; read-out: Kinase inhibition IC50 CDK4/cyclin D1
Protocol: as §1

A549 = assay: 72-h MTT cytotoxicity assay, A549; format: cell-based; details: Homo sapiens, read-out: 72-h MTT IC50 A549, A549 cell line
Method in brief: as §3

CDK1/cyclin B = CDK1/cyclin B (Homo sapiens, UniProt P06493); assay: Kinase assay, radioactive phosphate incorporation, CDK1/cyclin B; format: biochemical; details: 100 μM ATP, 30° C.; read-out: Kinase inhibition IC50 CDK1/cyclin B
Protocol: as §1

CDK2/cyclin A = CDK2/cyclin A (Homo sapiens, UniProt P24941); assay: Kinase assay, radioactive phosphate incorporation, CDK2/cyclin A; format: biochemical; details: 100 μM ATP, 30° C.; read-out: Kinase inhibition IC50 CDK2/cyclin A
Protocol: as §1

GSK3β = GSK3β (Homo sapiens, UniProt P49841); assay: Kinase assay, radioactive phosphate incorporation, GSK3β; format: biochemical; details: 100 μM ATP, 30° C.; read-out: Kinase inhibition IC50 GSK3β
Method in brief: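 Steps: enzyme (2-4 μg) plus substrate in pH 7.4 buffer with DTT and vanadate; start with 100 μM ATP/15 mM MgCl2 containing [γ-32P]-ATP; incubate at 30° C; stop on ice; filter, wash with 75 mM orthophosphoric acid; scintillation count. Compounds diluted from DMSO stocks into 10% DMSO buffer.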

Sequence of CDK9/cyclin T1 (P50750 whole entry, species assumed): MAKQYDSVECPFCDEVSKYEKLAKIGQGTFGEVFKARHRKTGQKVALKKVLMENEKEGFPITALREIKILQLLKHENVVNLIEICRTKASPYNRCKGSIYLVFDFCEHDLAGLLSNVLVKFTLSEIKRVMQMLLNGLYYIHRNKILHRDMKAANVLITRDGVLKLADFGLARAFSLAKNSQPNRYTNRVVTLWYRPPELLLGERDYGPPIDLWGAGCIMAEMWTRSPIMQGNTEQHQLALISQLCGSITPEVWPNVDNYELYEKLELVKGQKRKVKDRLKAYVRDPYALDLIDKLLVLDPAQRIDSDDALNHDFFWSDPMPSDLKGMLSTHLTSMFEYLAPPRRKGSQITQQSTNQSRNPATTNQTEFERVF
Sequence of CDK9/cyclin T1 (O60563 whole entry partner, species assumed): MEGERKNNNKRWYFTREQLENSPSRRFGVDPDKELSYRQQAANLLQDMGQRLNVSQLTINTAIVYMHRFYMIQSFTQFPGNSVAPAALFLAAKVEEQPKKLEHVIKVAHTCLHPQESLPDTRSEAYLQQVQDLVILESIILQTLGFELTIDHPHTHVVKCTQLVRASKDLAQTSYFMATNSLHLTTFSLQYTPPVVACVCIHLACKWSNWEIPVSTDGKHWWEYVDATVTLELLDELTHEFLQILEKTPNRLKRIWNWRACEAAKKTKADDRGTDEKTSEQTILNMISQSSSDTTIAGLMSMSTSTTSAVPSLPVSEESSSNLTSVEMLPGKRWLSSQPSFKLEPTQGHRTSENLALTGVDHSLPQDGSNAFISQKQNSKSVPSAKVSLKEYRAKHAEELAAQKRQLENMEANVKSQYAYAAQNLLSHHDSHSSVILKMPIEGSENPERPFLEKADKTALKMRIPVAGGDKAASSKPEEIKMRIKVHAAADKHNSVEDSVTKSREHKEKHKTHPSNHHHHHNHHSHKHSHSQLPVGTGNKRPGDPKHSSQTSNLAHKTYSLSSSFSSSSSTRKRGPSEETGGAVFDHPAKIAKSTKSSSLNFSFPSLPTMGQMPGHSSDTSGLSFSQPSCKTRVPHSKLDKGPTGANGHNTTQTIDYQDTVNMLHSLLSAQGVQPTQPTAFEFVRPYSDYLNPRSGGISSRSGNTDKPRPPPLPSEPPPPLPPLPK
Sequence of GSK3β (P49841 whole entry, species assumed): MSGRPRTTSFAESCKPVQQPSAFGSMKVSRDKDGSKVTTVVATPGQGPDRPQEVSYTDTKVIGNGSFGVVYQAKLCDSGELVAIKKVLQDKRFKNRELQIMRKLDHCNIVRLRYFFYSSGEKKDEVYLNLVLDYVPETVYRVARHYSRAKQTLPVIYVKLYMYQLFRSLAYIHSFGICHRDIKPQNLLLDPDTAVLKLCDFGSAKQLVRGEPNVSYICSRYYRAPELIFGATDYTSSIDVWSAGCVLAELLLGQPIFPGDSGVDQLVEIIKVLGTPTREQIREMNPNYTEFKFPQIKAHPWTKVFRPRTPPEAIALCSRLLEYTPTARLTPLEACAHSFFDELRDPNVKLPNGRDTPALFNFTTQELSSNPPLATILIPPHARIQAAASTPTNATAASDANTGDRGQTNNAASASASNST
Sequence of CDK4/cyclin D1 (P11802 whole entry, species assumed): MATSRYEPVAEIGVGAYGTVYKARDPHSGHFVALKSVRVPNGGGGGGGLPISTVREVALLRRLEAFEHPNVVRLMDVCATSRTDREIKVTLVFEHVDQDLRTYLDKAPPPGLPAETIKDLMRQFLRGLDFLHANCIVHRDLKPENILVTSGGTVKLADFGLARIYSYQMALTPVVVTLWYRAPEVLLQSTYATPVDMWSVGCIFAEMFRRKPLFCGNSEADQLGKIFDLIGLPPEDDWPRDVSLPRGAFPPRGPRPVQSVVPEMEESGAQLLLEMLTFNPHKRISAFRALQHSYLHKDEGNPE
Sequence of CDK4/cyclin D1 (P24385 whole entry partner, species assumed): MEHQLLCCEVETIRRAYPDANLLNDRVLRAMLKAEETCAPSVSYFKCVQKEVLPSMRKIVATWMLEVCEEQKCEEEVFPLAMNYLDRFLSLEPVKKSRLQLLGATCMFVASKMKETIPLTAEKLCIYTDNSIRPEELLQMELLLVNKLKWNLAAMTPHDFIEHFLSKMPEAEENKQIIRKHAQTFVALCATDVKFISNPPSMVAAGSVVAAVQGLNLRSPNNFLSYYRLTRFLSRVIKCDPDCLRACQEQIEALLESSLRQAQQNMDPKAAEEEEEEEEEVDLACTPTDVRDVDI
Sequence of CDK1/cyclin B (P06493 whole entry, species assumed): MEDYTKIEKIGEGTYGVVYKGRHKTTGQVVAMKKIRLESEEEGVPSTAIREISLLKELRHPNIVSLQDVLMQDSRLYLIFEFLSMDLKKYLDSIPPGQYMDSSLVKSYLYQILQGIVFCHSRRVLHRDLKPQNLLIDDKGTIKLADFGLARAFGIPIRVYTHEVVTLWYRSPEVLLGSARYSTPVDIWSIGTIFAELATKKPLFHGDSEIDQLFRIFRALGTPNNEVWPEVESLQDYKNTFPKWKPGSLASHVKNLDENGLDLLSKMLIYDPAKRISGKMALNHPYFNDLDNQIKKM
Sequence of CDK1/cyclin B (P14635 whole entry partner, species assumed): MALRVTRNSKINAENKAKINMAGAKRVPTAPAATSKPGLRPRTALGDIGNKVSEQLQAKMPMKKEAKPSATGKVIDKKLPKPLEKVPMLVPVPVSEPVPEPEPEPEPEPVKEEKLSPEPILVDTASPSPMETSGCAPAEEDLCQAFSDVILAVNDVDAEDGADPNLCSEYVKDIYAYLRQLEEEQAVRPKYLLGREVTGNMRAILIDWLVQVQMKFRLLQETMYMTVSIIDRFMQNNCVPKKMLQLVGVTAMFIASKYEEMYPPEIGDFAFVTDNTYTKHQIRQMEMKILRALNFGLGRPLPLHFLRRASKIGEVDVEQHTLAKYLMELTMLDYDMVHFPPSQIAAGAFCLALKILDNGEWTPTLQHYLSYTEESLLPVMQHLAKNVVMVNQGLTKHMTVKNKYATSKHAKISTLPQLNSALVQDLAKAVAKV
Sequence of CDK7/cyclin H (P50613 whole entry, species assumed): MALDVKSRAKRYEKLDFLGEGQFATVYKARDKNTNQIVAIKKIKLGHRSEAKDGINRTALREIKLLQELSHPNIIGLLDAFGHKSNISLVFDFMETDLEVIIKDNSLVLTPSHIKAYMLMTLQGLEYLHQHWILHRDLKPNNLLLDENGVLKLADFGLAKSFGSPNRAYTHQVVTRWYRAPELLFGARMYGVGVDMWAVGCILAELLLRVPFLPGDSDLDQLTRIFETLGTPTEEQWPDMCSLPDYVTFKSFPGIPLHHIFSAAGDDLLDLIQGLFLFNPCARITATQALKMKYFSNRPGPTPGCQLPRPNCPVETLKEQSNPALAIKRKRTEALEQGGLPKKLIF
Sequence of CDK7/cyclin H (P51946 whole entry partner, species assumed): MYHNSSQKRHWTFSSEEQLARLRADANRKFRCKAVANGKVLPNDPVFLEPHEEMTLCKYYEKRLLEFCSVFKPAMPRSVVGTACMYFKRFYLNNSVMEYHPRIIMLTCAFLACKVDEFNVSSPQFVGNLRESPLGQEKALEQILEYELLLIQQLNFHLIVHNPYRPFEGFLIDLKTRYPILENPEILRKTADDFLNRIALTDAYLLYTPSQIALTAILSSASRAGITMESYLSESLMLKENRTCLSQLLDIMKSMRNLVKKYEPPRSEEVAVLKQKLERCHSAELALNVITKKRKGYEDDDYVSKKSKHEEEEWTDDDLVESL

Row | IC50 (Aurora-A) | IC50 (CDK9/cyclin T1) | IC50 (CDK2/cyclin E) | IC50 (CDK7/cyclin H) | IC50 (CDK4/cyclin D1) | IC50 (CDK1/cyclin B) | IC50 (CDK2/cyclin A) | IC50 (GSK3β) | SMILES | IC50 [1] | IC50 (Saos-2) | IC50 (HT29) | IC50 (A549)
1 | 160 nM | 120 nM |  |  |  |  |  |  | Oc1cccc(Nc2nccc(-c3cc(F)ccc3F)n2)c1 [Compound 114, 3-[4-(2,5-Difluoro-phenyl)-pyrimidin-2-ylamino]-phenol] |  |  |  | 
2 | 520 nM |  |  |  |  |  |  |  | COc1ccc(-c2ccnc(Nc3ccc(N4CCOCC4)cc3)n2)cc1 [Compound 111, [4-(4-Methoxy-phenyl)-pyrimidin-2-yl]-(4-morpholin-4-yl-phenyl)-amine] |  |  |  | 
3 | 1100 nM | 900 nM |  |  |  |  |  |  | O=[N+]([O-])c1cccc(Nc2nccc(-c3ccc(CN4CCCCC4CO)cc3)n2)c1 (stereo not shown) [Compound 127, (1-{4-[2-(3-Nitro-phenylamino)-pyrimidin-4-yl]-benzyl}-piperidin-2-yl)-methanol] |  |  |  | 
4 | 630 nM | 50 nM |  |  |  |  |  |  | OCc1cccc(-c2ccnc(Nc3cccc(F)c3)n2)c1 [Compound 116, {3-[2-(3-Fluoro-phenylamino)-pyrimidin-4-yl]-phenyl}-methanol] |  |  |  | 
5 | 6 nM | 190 nM |  |  |  |  |  |  | Oc1ccc(Nc2nccc(-c3cccc(O)c3)n2)cc1 [Compound 122, 3-[2-(4-Hydroxy-phenylamino)-pyrimidin-4-yl]-phenol] |  |  |  | 
6 | 140 nM | 150 nM |  |  |  |  |  |  | Oc1ccc(Nc2nccc(-c3cccc(F)c3)n2)cc1 [Compound 113, 4-[4-(3-Fluoro-phenyl)-pyrimidin-2-ylamino]-phenol] |  |  |  | 
7 | 1800 nM | 20 nM |  |  |  |  |  |  | COc1cccc(-c2ccnc(Nc3cccc(F)c3)n2)c1 [Compound 118, (3-Fluoro-phenyl)-[4-(3-methoxy-phenyl)-pyrimidin-2-yl]-amine] |  |  |  | 
8 |  | 2 nM | 60 nM | 70 nM | 3400 nM | 1200 nM | 580 nM | 20 nM | O=[N+]([O-])c1cccc(Nc2nccc(-c3cccc(CN4CCCC(CCO)C4)c3)n2)c1 (stereo not shown) [Compound 100, 2-(1-{3-[2-(3-Nitro-phenylamino)-pyrimidin-4-yl]-benzyl}-piperidin-3-yl)-ethanol] | 800 ± 400 nM | 1300 nM | 640 nM | 560 nM

Continued, molecule first:

Row | SMILES | IC50 (Aurora-A) | IC50 (CDK9/cyclin T1) | IC50 (CDK2/cyclin E) | IC50 (CDK7/cyclin H) | IC50 (CDK4/cyclin D1) | IC50 (CDK1/cyclin B) | IC50 (CDK2/cyclin A) | IC50 (GSK3β) | IC50 [1] | IC50 (Saos-2) | IC50 (HT29) | IC50 (A549)
9 | Oc1cccc(Nc2nccc(-c3cccc(C(F)(F)F)c3)n2)c1 [Compound 95, 3-[4-(3-trifluoromethyl-phenyl)-pyrimidin-2-ylamino]-phenol] | 990 nM | 90 nM |  |  |  |  |  |  |  |  |  | 
10 | Oc1cccc(Nc2nccc(-c3cccc(Cn4cncn4)c3)n2)c1 [Compound 34, 3-[4-(3-[1,2,4]triazol-1-ylmethyl-phenyl)-pyrimidin-2-ylamino]-phenol] |  | 130 nM | 240 nM | 1200 nM | 1800 nM | 7000 nM | 2400 nM | 41 nM | 5400 ± 2500 nM | 3700 nM | 8300 nM | 4100 nM
11 | CCN(Cc1cccc(-c2ccnc(Nc3ccc(OC)nc3)n2)c1)C(C)C [Compound 53, (4-{3-[(Ethyl-isopropyl-amino)-methyl]-phenyl}-pyrimidin-2-yl)-(6-methoxy-pyridin-3-yl)-amine] |  | 28 nM | 350 nM | 2500 nM | 1100 nM | 3900 nM | 3400 nM | 51 nM | 2100 ± 1200 nM | 3200 nM | 850 nM | 2200 nM
12 | Oc1ccc(Nc2nccc(-c3cccc(C(F)(F)F)c3)n2)cc1 [Compound 96, 4-[4-(3-trifluoromethyl-phenyl)-pyrimidin-2-ylamino]-phenol] | 20 nM | 80 nM |  |  |  |  |  |  |  |  |  | 
13 | O=[N+]([O-])c1cccc(Nc2nccc(-c3cccc(CN4CCOCC4)c3)n2)c1 [Compound 39, [4-(3-Morpholin-4-ylmethyl-phenyl)-pyrimidin-2-yl]-(3-nitro-phenyl)-amine] |  | 110 nM | 120 nM | 38 nM | 2410 nM | 350 nM | 2400 nM | 150 nM | 5600 ± 3200 nM | 8000 nM | 2000 nM | 6800 nM
